The conditions of data set [1]: for ratio of AUC in tissue to AUC in plasma: bone, bone marrow, salivary gland, thyroid, spleen, kidney (each).
Description: Sprague-Dawley rats (18 males) were given carbon-14 tigecycline at a dosage of 3 mg/kg by 30-minute infusion. Concentrations or radioactivity were determined in tissues of 3 rats/time point at the end of the infusion and at 1, 8, 24, 72, and 168 hours after the end of infusion.
Data set [2] in a line: Antibiotic levels in rabbit serum and bone by diffusion bioassay. In kind it is in vivo, New Zealand white rabbits. The procedure: Normal NZW rabbit serum (Fisher Scientific) and normal, uninfected rabbit tibia bone were used to generate standard curves for tigecycline (Wyeth-Ayerst Research, Pearl River, N.Y.), vancomycin (Abbott Laboratories, Chicago, Ill.), and rifampin (Merrell Pharmaceuticals Inc. Kansas, Mo.). Bioassays were performed with each drug to generate the standard curves for antibiotic concentration in serum and/or tibial bone.
The organism used for the bioassay was Bacillus cereus ATCC11778. Serum standards were prepared using two-fold serial dilutions with either antibiotic to yield concentrations of 25 μg/ml to 0.20 μg/ml drug in Normal NZW rabbit serum. Bone eluate standards were prepared for tigecycline by thoroughly cleaning noninfected rabbit tibias with 70% ethanol in a sterilized fume hood. Each tibia was broken into small chips of approximately 0.5 cm^2 using a grinder. The chips were placed into a sterile, 50 ml conical centrifuge tube and weighed. One milliliter of sterile, 0.9% normal saline was added for each gram of bone chips. The solution was thoroughly vortexed for two minutes. The resulting bone eluate was allowed to shake at 180 rpm in a cold room at 4° C., for 12 hours. The samples were centrifuged at 4000 rpm for 3 minutes prior to assay, to pellet the chips.
The diameter of the zone of growth inhibition around each well was measured, in millimeters. A standard curve was generated for tigecycline concentration in both serum and bone eluate and for vancomycin in serum by plotting the known antibiotic concentration against its resulting zone of inhibition measurement. […]
Serum samples were stored at −70° C. until the bioassay was performed. […] The diameter of the zone of growth inhibition around each well was measured and concentrations of tigecycline were extrapolated from the standard curve.
Peak and trough levels of antibiotic were determined for Groups 2 and 4 at 1 hour (peak) and 12 hour (trough) after the initial antibiotic administration. Antibiotic concentrations were determined by means of a bioassay. […]

The nature of data set [3]: Adverse events and weight variance in infected treated rabbits. The source says:
All rabbits were monitored weekly for weight variance. […] The key for FIGS. 4A and B is as follows: Control=control group, no treatment; Vancomycin=subcutaneous vancomycin treated group; Vanco+Rifampin=subcutaneous vancomycin with oral rifampin treated group; Gar-936=subcutaneous Gar-936 treated group; Gar-936+Rifampin=subcutaneous Gar-936 with oral Rifampin treated group.

Data set [4] is described as follows: Pharmacokinetics and tolerability of intravenous tigecycline in humans. In kind it is in vivo, human.
For a further data set, the system named is Acinetobacter baumannii. Briefly: Compassionate use study, osteomyelitis patient. Conditions: 50 mg every 12 or 24 hours for two months; within one month. The format is in vivo, human. The procedure:
The patient was treated with meropenem and tobramycin. […] The patient was then treated with tigecycline for two months with either 50 mg every 12 hours or 50 mg every 24 hours.

A further data set concerns Mycobacterium abscessus. In kind it is in vivo, human. The following applies: vertebral osteomyelitis patient. The procedure:
Debridement was accomplished after one year of infection with placement of hardware. […] The amikacin was later stopped due to renal damage. Linezolid and azithromycin were later added to the treatment regimen. The organism was determined to be resistant to moxifloxacin.
The patient presented later with a new vertebral osteomyelitis just above the site of the old infection. A biopsy was performed and it was determined that no additional debridement was needed. […] Tigecycline was administered up to MIC 0.25 micrograms/ml. The patient's white blood cell count was normal while hypogammaglobulinemia was present and lymphocytic function decreased. The patient had also been under treatment with IL-12, but IL-12 was held during antibiotic treatment.

The subject of data set [5] is methicillin-resistant S. aureus.
Description: Preparation of the Infective Media: S. aureus was incubated overnight in Mueller Hinton Broth (Difco Laboratories, Detroit, Mich.) medium spiked with 40 μg/ml oxacillin, at 37° C. The bacterial concentration of the culture was adjusted to 10^7 CFU's/ml.
Rabbit Infection Procedure: New Zealand white rabbits (Ray Nicholl's Rabbitry, Lumberton, Tex.), eight to 12 weeks old and weighing 2.0 to 3.5 kg, were utilized for the study. After anesthesia was given, an 18-gauge needle was inserted percutaneously through the lateral aspect of the left tibial metaphysis into the intramedullary cavity. Next, 0.15 ml of 5% sodium morrhuate (American Regent Laboratories, Inc., Shirley, N.Y.), 0.1 ml of S. aureus (10^7 CFU/ml), and 0.2 ml of sterile, normal saline, 0.9%, were injected sequentially.
Group 1 (control group): infected but left untreated for the duration of the study. Group 2: rabbits were treated for 4 weeks with subcutaneous vancomycin at 30 mg/kg twice daily. Group 3: rabbits were treated for 4 weeks with subcutaneous vancomycin at 30 mg/kg twice daily plus oral rifampin at 40 mg/kg twice daily in 0.5% methylcellulose. Group 4: rabbits were treated for 4 weeks with subcutaneous tigecycline at 14 mg/kg twice daily. Group 5: rabbits were treated for 4 weeks with subcutaneous tigecycline at the same dose as in the rabbits in Group 4, plus oral rifampin at 40 mg/kg twice daily in 0.5% methylcellulose. […] Group 6: rabbits were treated for 1 week with subcutaneous tigecycline at the same dose as in Group 4, but were sacrificed 3 hours after administration of the last dose. At that time, blood and infected bone samples were collected and tigecycline concentration was determined. Groups 1 to 5 were left untreated for 2 weeks after treatment phase of the experiment and sacrificed at 8 weeks after infection.
Radiographs of bilateral tibias were taken at initiation of therapy (2 weeks after infection), at the end of antibiotic therapy (6 weeks after infection), and at sacrifice (8 weeks after infection). Radiographs were scored according to a visual scale (Table 1) by three investigators, each blinded to the treatment group, and the grades were averaged.
After sacrifice, gross cultures were performed for right and left tibias. Quantitative counts of S. aureus, in CFUs per gram, of left tibial bone and marrow were determined for all study groups.
Culture Preparation: The bone marrow and the intramedullary canal of bilateral tibias were swabbed with sterile cotton tip applicators for gross cultures analysis of left tibias and quality assurance checks of right tibias. The inoculated applicator was streaked onto blood plates and then placed into 5 ml of sterile TSB. The plates and tubes were then incubated at 37° C. for 24 hours and growth and/or turbidity was recorded.
The bone marrow was placed into a sterile, 50 ml centrifuge tube and weighed. The bone fragments were broken into 0.5 cm^2 chips, placed into a sterile, 50 ml centrifuge tube, and the final product weighed. Normal sterile saline, 0.9%, was added in a 3 to 1 ratio (3 ml saline/gram of bone or marrow) and the suspensions were vortexed for 2 minutes. Six ten-fold dilutions of each suspension were prepared with sterile, normal saline, 0.9%. Twenty-microliter samples of each dilution, including the initial suspension, was plated, in triplicate, onto blood agar plates and incubated at 37° C. for 24 hours. CFUs were counted at the greatest dilution for each tibia sample.
The test system of data set [6] is methicillin-resistant Staphylococcus aureus. The following applies: 14 mg/kg bid; cited from earlier work.
The mark [7] stands for this setting: average grade, t=14 versus t=56 days.
[8] abbreviates: individual rabbits, left tibia, 8 weeks after infection.

Several values for one entry are separate records, joined by “and”; a condition that tells them apart may be missing. Equal values may be shown once. Read-outs that look alike come from different tables or passages of the source.

As to `CN(C)c1cc(NC(=O)CNC(C)(C)C)c(O)c2c1C[C@H]1C[C@H]3[C@H](N(C)C)C(O)=C(C(N)=O)C(=O)[C@@]3(O)C(O)=C1C2=O` [[^14C]-Tigecycline], the figures for the “ratio of AUC in tissue to AUC in plasma” value in data set [1] and in data set [1] (listed as carbon-14 tigecycline) were “greater than 10” and > 10, respectively. Moreover, the “ratio of AUC in lung to AUC in plasma” value in data set [1] (lung) is given as 4.4.
The half-life is the time in which the quantity being followed falls by half. Low values mean rapid decline, high ones slow decline. With `CN(C)c1cc(NC(=O)CNC(C)(C)C)c(O)c2c1C[C@H]1C[C@H]3[C@H](N(C)C)C(O)=C(C(N)=O)C(=O)[C@@]3(O)C(O)=C1C2=O` [Tigecycline], in data set [2] (New Zealand white, rabbit, serum, subcutaneous, uninfected rabbits, 14 mg/kg twice daily, read-out: serum level at 12 hour (trough)), the concentration at 12 h is > 200 ng/mL. Moreover, the “antibiotic serum levels (peaks and troughs)” value in data set [2] (infected rabbits, tigecycline 14 mg/kg, vancomycin 30 mg/kg twice daily) is recorded as “above minimum inhibitory concentrations”. Also, in data set [3] (approximately 1.0-1.5 weeks post-antibiotic initiation), the “symptoms of gastric dysfunction” value is on record as “mild to severe symptoms of gastric dysfunction”. Moreover, the mean weight gain in data set [3] (infected rabbits after antibiotic treatment) was -0.05 kg. The “rabbits that died before completion of treatment” value in data set [3] (infected rabbits, 4 weeks treatment) was 5. Also, the “dosage causing relevant morbidity and mortality” value in data set [3] (rabbit model, data not shown) is given as “higher than 14 mg/kg per day”. Moreover, in data set [4] (human, in vivo, intravenous, humans), the half-life is 40 to 60 h. For the same compound, the Vd in data set [4] (human, in vivo, intravenous, humans, read-out: volume of distribution at steady state) fell in the range of 7 to 14 L/kg. Moreover, in data set [4] (one-hour infusion, human subjects), the dose tolerated entry is recorded as “up to 100 mg”. Besides, the “dose resulting in gastrointestinal intolerance (nausea and vomiting) in all subjects” value in data set [4] (twice daily over nine days, 200 ml infusion over one hour, fed) is ≥ 75 mg. In data set [4] (twice daily, 200 ml infusion over one hour), this compound displayed a dose tolerated of 25 to 50 mg. The “clinical outcome (MRI)” value in the data set on Acinetobacter baumannii is on record as “resolution of the osteomyelitis”. Also, the clinical outcome in the data set on Mycobacterium abscessus is reported as “doing well a year after the treatment”. Moreover, in data set [5] (setting [7]), the “radiographic improvement (grade)” value is recorded as 0.9+/−0.1 and the “radiographic improvement (percent)” value was determined as 40.9%. For the same compound, in data set [5] (bone cultures at sacrifice), the “rabbits/samples positive for MRSA in bone” value is 1 out of 10 and one rabbit of 10. The “proportion of positive cultures in marrow” value in data set [5] (compared with 0.33 (5/15) in control group) is 0. For the same compound, the “bacterial outcome in bone and marrow, in words” value in data set [5] (end of study, MRSA infected rabbits) is “lower colony forming units in bone and marrow”. Also, in data set [5] (setting [8]), the “Counts (CFU/gm) Bone” value was 178.6 CFU/gm and 0 CFU/gm (9×); the “Counts (CFU/gm) Marrow” value came to 0 CFU/gm. Moreover, the “rabbits infected in bone marrow” value in data set [5] (marrow cultures at sacrifice) is reported as “no infection”. Also, in data set [5] (t=56 days, p<0.05), the “average radiographic grade versus control group” value is “significantly lower”. For the same compound, in data set [5] (tibia bone), the “average bacterial concentration of the group” value is on record as 20 CFU/gram bone. Moreover, in data set [6], the “efficacy compared with 40 mg/kg vancomycin” value is “more effective”.

Values taken from patent publication US20050148553A1, “Use of tigecycline, alone, or in combination with rifampin to treat osteomyelitis and/or septic arthritis” (priority 2003, published 2005).
